From ChEMBL document CHEMBL4229459, “An efficient synthetic route for preparation of antimycobacterial wollamides and evaluation of their in vitro and in vivo efficacy” (Bioorg Med Chem Lett, 2018)
≈ marks a conversion by molar mass, not a printed value. Residues, ends and D or L forms follow the SMILES beside them.

Legend:
[1] = test system: Mycobacterium tuberculosis; assay: Antimycobacterial activity against Mycobacterium tuberculosis H37Rv incubated for 6 days under shaking condition by resazurin dye based fluorescence assay; assay type: functional; details: 144 h
HepG2 = assay: Cytotoxicity against human HepG2 cells after 48 hrs by CellTiter-Glo luminescence assay; assay type: cell-based; details: HepG2, 48 h
[2] = Permeability of the compound by PAMPA; assay type: ADME; details: read-out: permeability
[3] = Intrinsic clearance in mouse liver microsomes; assay type: ADME, microsome
[4] = Intrinsic clearance in human liver microsomes; assay type: ADME, microsome
[5] = Kinetic aqueous solubility of the compound by charged aerosol detection method; assay type: physicochemical; details: buffer; read-out: Kinetic_solubility
Mus musculus [6] = assay: Toxicity in C57BL/6J mouse assessed as behavioral changes at 5 to 25 mg/kg, ip by Irwin test; assay type: organism-based; details: in vivo
Mus musculus [7] = assay: Dose normalized AUC (0 to 6 hrs) in C57BL/6J mouse at 5 mg/kg, ip; assay type: ADME, organism-based; details: in vivo
[8] = Kinetic aqueous solubility of the compound at pH 7.4 phosphate buffered saline after 1 hr by CLND method; assay type: physicochemical; details: read-out: Kinetic_solubility
[9] = test system: Mycobacterium tuberculosis; assay: Antimycobacterial activity against Mycobacterium tuberculosis H37Rv infected in C57BL/6J mouse assessed as log10 CFU reduction in bacterial lung count at 5 mg/kg, ip administered once daily for 8 days measured post last dose relative to control; assay type: functional
[10] = AUC (0 to 6 hrs) in C57BL/6J mouse at 25 mg/kg, ip; assay type: ADME, organism-based; design: dose 25 mg/kg, time < 6 hr, route intraperitoneal; details: in vivo
[11] = Permeability of the compound at pH 7.4 at […] incubated for 3 hrs under shaking condition by HPLC method; assay type: ADME; details: not told, read-out: permeability
[12] = Cmax in C57BL/6J mouse at 5 mg/kg, ip; assay type: ADME, organism-based; design: dose 5 mg/kg, route intraperitoneal; details: in vivo
[13] = AUC (0 to 6 hrs) in C57BL/6J mouse at 5 mg/kg, ip; assay type: ADME, organism-based; design: dose 5 mg/kg, time < 6 hr, route intraperitoneal; details: in vivo
[14] = test system: Mycobacterium tuberculosis; assay: Antimycobacterial activity against Mycobacterium tuberculosis H37Rv infected in human THP1 cells treated prior to infection measured after 4 days by luciferase reporter gene assay; assay type: functional, organism-based; details: THP-1, 96 h
Mus musculus [15] = assay: Dose normalized AUC (0 to 6 hrs) in C57BL/6J mouse at 25 mg/kg, ip; assay type: ADME, organism-based; details: in vivo
Mus musculus [16] = assay: Toxicity in C57BL/6J mouse assessed as body weight loss at 25 mg/kg, ip after 24 hrs by Irwin test; assay type: organism-based; details: in vivo
[17] = Cmax in C57BL/6J mouse at 25 mg/kg, ip; assay type: ADME, organism-based; design: dose 25 mg/kg, route intraperitoneal; details: in vivo
[18] = Intrinsic clearance in human liver microsomes at […] pretreated for 45 mins followed by NADPH addition by LC-MS/MS analysis; assay type: ADME, microsome
[19] = Kinetic aqueous solubility of the compound by CLND method; assay type: physicochemical; details: buffer; read-out: Kinetic_solubility
[20] = Intrinsic clearance in mouse liver microsomes at […] pretreated for 45 mins followed by NADPH addition by LC-MS/MS analysis; assay type: ADME, microsome
[21] = test system: Mycobacterium tuberculosis; assay: Antimycobacterial activity against Mycobacterium tuberculosis H37Rv infected in C57BL/6J mouse assessed as log10 CFU reduction in bacterial lung count at 30 mg/kg, po administered once daily for 8 days measured post last dose relative to control; assay type: functional

Compound | MIC [1] | IC50 (HepG2) | Papp [2] | CLH [3] | CLH [4] | solubility kinetic [5] | solubility kinetic at 1 h [8] | IC50 [14] | CLH [18] | further results
CC(C)C[C@@H]1NC(=O)[C@H](Cc2c[nH]c3ccccc23)NC(=O)[C@@H](CCCN)NC(=O)[C@H](CC(=O)NC2CCCCC2)NC(=O)[C@H](C(C)C)NC(=O)[C@@H](CC(C)C)NC1=O | 5 µM (≈ 4.11 µg/mL) | 50.1 µM | – | – | – | – | – | – | – | –
CC(C)C[C@@H]1NC(=O)[C@H](Cc2c[nH]c3ccccc23)NC(=O)[C@@H](CCCN)NC(=O)[C@H](CC(=O)N2CCCCC2)NC(=O)[C@H](C(C)C)NC(=O)[C@@H](CC(C)C)NC1=O | 20 µM (≈ 16.2 µg/mL) | > 100 µM | < 1 ×10⁻⁶ cm/s | < 0.48 mL/min/g | 1.9 mL/min/g | 107 µM (≈ 86.5 µg/mL) | – | – | – | –
CC[C@H](C)[C@@H]1NC(=O)[C@@H](CC(C)C)NC(=O)[C@H](CC(C)C)NC(=O)[C@H](Cc2c[nH]c3ccccc23)NC(=O)[C@@H](CCCN)NC(=O)[C@H](CC(N)=O)NC1=O | 1.1 µM (≈ 0.829 µg/mL) | 50.1 µM | – | < 0.48 mL/min/g | – | – | > 235 µM | 0.8 µM | 1.87 mL/min/g | Activity (Mus musculus [6]): Non-Toxic; AUC/dose (Mus musculus [7]): 957 ng·h/mL/mg/kg; FC [9]: -0.2; AUC(0-t) at 6 h [10]: 26600 ng·h/mL; Papp at 3 h [11]: < 1 ×10⁻⁶ cm/s; Cmax [12]: 2170 ng/mL; AUC(0-t) at 6 h [13]: 4780 ng·h/mL; AUC/dose (Mus musculus [15]): 1063.8 ng·h/mL/mg/kg; Activity (Mus musculus [16]): 10%; Cmax [17]: 6330 ng/mL
CC(C)C[C@@H]1NC(=O)[C@H](Cc2c[nH]c3ccccc23)NC(=O)[C@@H](CCCN)NC(=O)[C@H](CC(=O)NCc2ccccc2)NC(=O)[C@H](C(C)C)NC(=O)[C@@H](CC(C)C)NC1=O | 10 µM (≈ 8.3 µg/mL) | 39.8 µM | < 1 ×10⁻⁶ cm/s | 0.73 mL/min/g | 0.88 mL/min/g | > 353 µM | – | – | – | –
CC[C@@H](C)[C@@H]1NC(=O)[C@@H](CC(C)C)NC(=O)[C@H](CC(C)C)NC(=O)[C@H](Cc2c[nH]c3ccccc23)NC(=O)[C@@H](CCCN)NC(=O)[C@H](CC(N)=O)NC1=O | 1.1 µM (≈ 0.829 µg/mL) | 50.1 µM | < 1 ×10⁻⁶ cm/s | < 0.48 mL/min/g | 0.87 mL/min/g | – | – | 0.8 µM | – | solubility kinetic [19]: 177 µM (≈ 133 µg/mL)
CCCCNC(=O)C[C@@H]1NC(=O)[C@H](C(C)C)NC(=O)[C@@H](CC(C)C)NC(=O)[C@H](CC(C)C)NC(=O)[C@H](Cc2c[nH]c3ccccc23)NC(=O)[C@@H](CCCN)NC1=O | 10 µM (≈ 7.96 µg/mL) | 63.1 µM | < 1 ×10⁻⁶ cm/s | 1.19 mL/min/g | 1.69 mL/min/g | 146 µM (≈ 116 µg/mL) | – | – | – | –
CC(C)C[C@@H]1NC(=O)[C@H](Cc2c[nH]c3ccccc23)NC(=O)[C@@H](CCCN)NC(=O)[C@H](CC(=O)N2CCC(Oc3ccc(OC(F)(F)F)cc3)CC2)NC(=O)[C@H](C(C)C)NC(=O)[C@@H](CC(C)C)NC1=O | > 80 µM | 31.6 µM | 8.7 ×10⁻⁶ cm/s | < 0.48 mL/min/g | 0.4 mL/min/g | – | 20 µM (≈ 19.7 µg/mL) | – | – | –
CC[C@H](C)[C@@H]1NC(=O)[C@@H](CC(C)C)NC(=O)[C@H](CC(C)C)NC(=O)[C@H](Cc2c[nH]c3ccccc23)NC(=O)[C@@H](CCCNC(=N)N)NC(=O)[C@H](CC(N)=O)NC1=O (HELM PEPTIDE1{I.N.[dR].W.L.[dL]}$PEPTIDE1,PEPTIDE1,1:R1-6:R2$$$V2.0) | 0.6 µM (≈ 0.478 µg/mL) | 50.1 µM | – | – | – | – | > 238 µM | 0.2 µM | 7.44 mL/min/g | Activity (Mus musculus [6]): Non-Toxic; AUC/dose (Mus musculus [7]): 1258.6 ng·h/mL/mg/kg; FC [9]: -0.2; AUC(0-t) at 6 h [10]: 14700 ng·h/mL; Cmax [12]: 1470 ng/mL; AUC(0-t) at 6 h [13]: 6290 ng·h/mL; CLH [20]: 1.01 mL/min/g; AUC/dose (Mus musculus [15]): 586.1 ng·h/mL/mg/kg; Activity (Mus musculus [16]): 10%; Cmax [17]: 3260 ng/mL
CC(C)C[C@@H]1NC(=O)[C@H](Cc2c[nH]c3ccccc23)NC(=O)[C@@H](CCCN)NC(=O)[C@H](CC(N)=O)NC(=O)[C@H](C(C)C)NC(=O)[C@@H](CC(C)C)NC1=O (HELM PEPTIDE1{[NCCC[C@@H](N[*:1])C(=O)[*:2]].W.L.[dL].V.N}$PEPTIDE1,PEPTIDE1,1:R1-6:R2$$$V2.0) | 0.6 µM (≈ 0.444 µg/mL) | 50.1 µM | – | – | – | – | 204 µM (≈ 151 µg/mL) | 1.26 µM | 0.97 mL/min/g | Papp at 3 h [11]: < 0.65 ×10⁻⁶ cm/s; CLH [20]: < 0.5 mL/min/g
COc1c(N2C[C@@H]3CCCN[C@@H]3C2)c(F)cc2c(=O)c(C(=O)O)cn(C3CC3)c12 [MOXIFLOXACIN] | – | – | – | – | – | – | – | – | – | FC [21]: 3.4
